From ChEMBL document CHEMBL1201862, “PubChem BioAssay data set” (2004)
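Where inhibition never reached the appropriate level, the endpoint shown equals the highest concentration tested. Otherwise, values were interpolated linearly from a five-concentration, 48-hour dose response in 96-well plates. GI50 = concentration required for 50% inhibition of growth.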 Activity calls are given as the source filed them. No stated cut-off is given here; in the data, active = GI50 up to about 1.1 µM and inactive = higher.

Assays:
Assay in all cases: NCI-60 cell line screen, 48 h
SNB-19 = tested on: SNB-19
UACC-257 = tested on: UACC-257
HCC 2998 = tested on: HCC 2998
IGROV-1 = tested on: IGROV-1
SK-MEL-2 = tested on: SK-MEL-2
SN12C = tested on: SN12C
SK-MEL-5 = tested on: SK-MEL-5
NCI-H460 = tested on: NCI-H460
U-251 = tested on: U-251
EKVX = tested on: EKVX
OVCAR-8 = tested on: OVCAR-8
OVCAR-3 = tested on: OVCAR-3
KM12 = tested on: KM12
CAKI-1 = tested on: CAKI-1
Malme-3M = tested on: Malme-3M
M14 = tested on: M14
OVCAR-5 = tested on: OVCAR-5
A498 = tested on: A498
SW-620 = tested on: SW-620
HT-29 = tested on: HT-29

Measured: GI50

CCOC(=O)Nc1cc(NC(/C=N/NC(C)=O)C(=O)OCC)c(OC)cc1NC(C)=O (stereo not given)
inactive: SNB-19 > 100 µM | UACC-257 > 100 µM | HCC 2998 > 100 µM | IGROV-1 > 100 µM | SK-MEL-2 > 100 µM | SN12C > 100 µM | SK-MEL-5 > 100 µM | NCI-H460 > 100 µM | U-251 > 100 µM | EKVX > 100 µM | OVCAR-8 > 100 µM | OVCAR-3 > 100 µM | KM12 > 100 µM | CAKI-1 > 100 µM | Malme-3M > 100 µM | M14 > 100 µM | OVCAR-5 > 100 µM | A498 > 100 µM | SW-620 > 100 µM | HT-29 > 100 µM

Cc1ccc(C)c(NC(=O)C(=O)CC(=O)c2cccc3ccccc23)c1
inactive: SNB-19 > 100 µM | UACC-257 > 100 µM | HCC 2998 > 100 µM | IGROV-1 > 100 µM | SK-MEL-2 > 100 µM | SN12C > 100 µM | SK-MEL-5 > 100 µM | NCI-H460 > 100 µM | U-251 > 100 µM | EKVX > 100 µM | OVCAR-8 > 100 µM | OVCAR-3 > 100 µM | KM12 > 100 µM | CAKI-1 > 100 µM | Malme-3M > 100 µM | M14 > 100 µM | OVCAR-5 > 100 µM | A498 > 100 µM | SW-620 > 100 µM | HT-29 > 100 µM

COc1ccc2nc(-c3ccccc3)cc(OCC(=O)O)c2c1
inactive: SNB-19 > 100 µM | UACC-257 > 100 µM | HCC 2998 > 100 µM | IGROV-1 > 100 µM | SK-MEL-2 > 100 µM | SN12C > 100 µM | SK-MEL-5 > 100 µM | NCI-H460 > 100 µM | U-251 > 100 µM | EKVX > 100 µM | OVCAR-8 > 100 µM | OVCAR-3 > 100 µM | KM12 > 100 µM | CAKI-1 > 100 µM | Malme-3M > 100 µM | M14 > 100 µM | OVCAR-5 > 100 µM | A498 > 100 µM | SW-620 > 100 µM | HT-29 > 100 µM

CCOC(=O)c1c[nH]c2cc3c(cc2c1=O)CCS3
inactive: SNB-19 > 100 µM | UACC-257 > 100 µM | HCC 2998 > 100 µM | IGROV-1 > 100 µM | SK-MEL-2 > 100 µM | SN12C > 100 µM | SK-MEL-5 > 100 µM | NCI-H460 > 100 µM | U-251 > 100 µM | EKVX > 100 µM | OVCAR-8 > 100 µM | OVCAR-3 > 100 µM | KM12 > 100 µM | CAKI-1 > 100 µM | Malme-3M > 100 µM | M14 > 100 µM | OVCAR-5 > 100 µM | A498 > 100 µM | SW-620 > 100 µM | HT-29 61.2 µM

CCCCc1ccc(Nc2nc3c(ncn3COCCBr)c(=O)[nH]2)cc1
inactive: SNB-19 > 100 µM | UACC-257 > 100 µM | HCC 2998 > 100 µM | IGROV-1 > 100 µM | SK-MEL-2 > 100 µM | SN12C > 100 µM | SK-MEL-5 > 100 µM | NCI-H460 > 100 µM | U-251 > 100 µM | EKVX > 100 µM | OVCAR-8 > 100 µM | OVCAR-3 > 100 µM | KM12 > 100 µM | CAKI-1 > 100 µM | Malme-3M > 100 µM | M14 > 100 µM | OVCAR-5 > 100 µM | A498 > 100 µM | SW-620 > 100 µM | HT-29 > 100 µM

C=CCn1c(-c2ccc([N+](=O)[O-])cc2)csc1=N
inactive: SNB-19 > 100 µM | UACC-257 13.1 µM | HCC 2998 > 100 µM | IGROV-1 59 µM | SK-MEL-2 91.2 µM | SN12C > 100 µM | SK-MEL-5 14.8 µM | NCI-H460 61.1 µM | U-251 54.1 µM | EKVX 16.4 µM | OVCAR-8 69.2 µM | OVCAR-3 41.4 µM | KM12 36.6 µM | CAKI-1 69.5 µM | Malme-3M 76.9 µM | M14 56.9 µM | OVCAR-5 > 100 µM | A498 > 100 µM | SW-620 70 µM | HT-29 32 µM

CCOC(=O)c1c(C)n(Cc2ccccc2)c(=O)c2ccccc2c(=O)c2c(=O)ccc(=O)c1=2
inactive: SNB-19 > 100 µM | UACC-257 > 100 µM | HCC 2998 38.5 µM | IGROV-1 22.3 µM | SK-MEL-2 > 100 µM | SN12C 41 µM | SK-MEL-5 > 100 µM | NCI-H460 > 100 µM | U-251 > 100 µM | EKVX > 100 µM | OVCAR-8 > 100 µM | OVCAR-3 34.1 µM | KM12 > 100 µM | CAKI-1 34.7 µM | Malme-3M 19.9 µM | M14 39.1 µM | OVCAR-5 > 100 µM | A498 > 100 µM | SW-620 33.3 µM | HT-29 42.8 µM

COc1cc(C2c3cc4c(cc3C(O)C3CCC(=O)N23)OCO4)cc(OC)c1OC (stereo not given)
inactive: SNB-19 29.9 µM | UACC-257 > 100 µM | HCC 2998 34.4 µM | IGROV-1 39.5 µM | SK-MEL-2 27 µM | SN12C 58.7 µM | SK-MEL-5 10.9 µM | NCI-H460 39.4 µM | U-251 26.1 µM | EKVX > 100 µM | OVCAR-8 37.2 µM | OVCAR-3 31.6 µM | KM12 12.6 µM | CAKI-1 28.2 µM | Malme-3M > 100 µM | M14 38.9 µM | OVCAR-5 43.2 µM | A498 42.6 µM | SW-620 36.6 µM | HT-29 29.9 µM

CCCN(CCc1ccc(-c2ccccc2)cc1)CCc1ccc2nn[nH]c2c1
inactive: SNB-19 13.1 µM | UACC-257 4.84 µM | HCC 2998 6.71 µM | IGROV-1 10 µM | SK-MEL-2 15.6 µM | SN12C 13.6 µM | SK-MEL-5 3.91 µM | NCI-H460 8.51 µM | U-251 12.9 µM | EKVX 13.5 µM | OVCAR-8 13.7 µM | OVCAR-3 12.5 µM | KM12 11.9 µM | CAKI-1 12.6 µM | Malme-3M 8.79 µM | M14 4.28 µM | OVCAR-5 17.1 µM | A498 17.3 µM | SW-620 10.7 µM | HT-29 11.5 µM

CCC1(CC)SCc2nc3ccccc3n21
inactive: SNB-19 53.2 µM | UACC-257 27.4 µM | HCC 2998 94.6 µM | IGROV-1 34.2 µM | SK-MEL-2 27.5 µM | SN12C 49.8 µM | SK-MEL-5 20.9 µM | NCI-H460 36.9 µM | U-251 37.2 µM | EKVX 27.3 µM | OVCAR-8 38.4 µM | OVCAR-3 32.1 µM | KM12 23.9 µM | CAKI-1 35.2 µM | Malme-3M 22.4 µM | M14 26.5 µM | OVCAR-5 45.6 µM | A498 40.1 µM | SW-620 58.6 µM | HT-29 32.3 µM

CCN(CC)/C(SCc1ccccc1)=C(\C(Cl)=C(Cl)Cl)[N+](=O)[O-]
inactive: SNB-19 28.9 µM | UACC-257 17.5 µM | HCC 2998 21.2 µM | IGROV-1 17.2 µM | SK-MEL-2 21.7 µM | SN12C 21.1 µM | SK-MEL-5 16.3 µM | NCI-H460 22.3 µM | U-251 22.9 µM | EKVX 22.9 µM | OVCAR-8 16.9 µM | OVCAR-3 11.7 µM | KM12 21 µM | CAKI-1 28.2 µM | Malme-3M 10.2 µM | M14 15.9 µM | OVCAR-5 17.9 µM | A498 13.6 µM | SW-620 21.8 µM | HT-29 25.8 µM
